Key:
Assay in all cases: whole plant or invertebrate
Type in all cases: in vivo
[1] = tested on: potato leafhopper (Empoasca fabae Harris)
Method: (§1) Test compounds were formulated using a solution containing 10% acetone, 90% water and 300 ppm X-77® Spreader Lo-Foam Formula non-ionic surfactant containing alkylarylpolyoxyethylene, free fatty acids, glycols and 2-propanol (Loveland Industries, Inc.) to provide the desired concentration in ppm. Formulated test solutions were then applied in 1 mL volumes through a SUJ2 atomizer nozzle with 1/8 JJ custom body (Spraying Systems Co.) positioned 1.27 cm (0.5 inches) above the top of each test unit.
[…] White sand was added to the top of the soil, and one of the primary leaves was excised prior to application. Test compounds were formulated and sprayed with 3 replications as described for Test A. After spraying, the test units were allowed to dry for 1 hour before they were infested with 5 potato leafhoppers (18- to 21-day-old adults). A black, screened cap was placed on the top of each container. The test units were held for 6 days in a growth chamber at 19-21° C. and 50-70% relative humidity.

[2] = tested on: cotton melon aphid (Aphis gossypii Glover); conditions: for mortality at 1000 ppm: rate 1000 ppm
Method: as §1
(§2) For evaluating control of cotton melon aphid (Aphis gossypii Glover) through contact and/or systemic means, each test unit consisted of a small open container with a 6- to 7-day-old cotton plant inside. This was pre-infested by placing on a leaf of the test plant 30 to 40 aphids on a piece of leaf excised from a culture plant (cut-leaf method). The larvae moved onto the test plant as the leaf piece desiccated. After pre-infestation, the soil of the test unit was covered with a layer of sand.
(§3) Test compounds were formulated and sprayed as described for Test A. The applications were replicated three times. After spraying of the formulated test compounds, each test unit was allowed to dry for 1 hour and then a black, screened cap was placed on top. The test units were held for 6 days in a growth chamber at 19-21° C. and 50-70% relative humidity.

[3] = tested on: western flower thrip (Frankliniella occidentalis Pergande)
Method: as §1
For evaluating control of the western flower thrip (Frankliniella occidentalis Pergande) through contact and/or systemic means, each test unit consisted of a small open container with a 5- to 7-day-old bean (var. Soleil) plant inside.
Test solutions were formulated and sprayed with 3 replications as described for Test A. After spraying, the test units were allowed to dry for 1 hour, 22 to 27 adult thrips were added to each unit and then a black, screened cap was placed on top. The test units were held for 7 days at 25° C. and 45-55% relative humidity.

[4] = tested on: silverleaf whitefly (Bemisia argentifolii Bellows and Perring); conditions: Bemisia argentifolii, in Gossypium hirsutum, Table 2B, read-out: % mortality (obs); for mortality at 500 ppm: rate 500 ppm; for mortality at 1000 ppm: rate 1000 ppm
Excerpt: For evaluating control of silverleaf whitefly (Bemisia argentifolii Bellows and Perring) through contact and/or systemic means, each test unit consisted of a small open container with a 12- to 14-day-old cotton plant inside. This was pre-infested by placing test units into cages infested with adult whiteflies so that oviposition on the cotton leaves could occur. The adults were removed from the plants with an air-blast nozzle, and the test units were capped. The test units were then stored 2 to 3 days before spraying.
as §1
The results for all experimental compositions in this test were replicated three times. After spraying of the formulated test composition, each test unit was allowed to dry for 1 hour and the cap removed. The test units were held for 13 days in a growth chamber at 28° C. and 50-70% relative humidity.

[5] = tested on: corn planthopper (Peregrines maidis)
Method: as §1
For evaluating control of corn planthopper (Peregrines maidis) through contact and/or systemic means, each test unit consisted of a small open cylindrical container with a 3- to 4-day-old corn (maize) plant (spike) inside. White sand was added to the top of the soil prior to application. Test compounds were formulated and sprayed with 3 replications as described for Test A. After spraying, the test units were allowed to dry for 1 hour before they were post-infested with 10 to 20 corn planthoppers (18- to 20-day-old nymphs) by sprinkling them onto the sand with a salt shaker. A black, screened cap was placed on the top of each container. The test units were held for 6 days in a growth chamber at 19-21° C. and 50-70% relative humidity.

[6] = tested on: green peach aphid (Myzus persicae Sulzer); conditions: Green Peach Aphid; for mortality at 10 ppm: rate 10 ppm; for mortality at 100 ppm: rate 100 ppm; for mortality at 1000 ppm: rate 1000 ppm
Method: as §1
as §2, with “green peach” for “cotton melon”, “(Myzus persicae Sulzer)” for “(Aphis gossypii Glover)”, “12-” for “6-”, “15-day-old radish” for “7-day-old cotton”
as §3, with “described in” for “described for”, “Test A,” for “Test A. The applications were”, “test compound,” for “test compounds,”

[7] = Aphis gossypii, read-out: % mortality (obs)
[8] = Frankliniella occidentalis, 168 h, rate 10 ppm, single compound, spray, 7 days, read-out: % mortality (obs)
[9] = Frankliniella occidentalis, 168 h, rate 100 ppm, single compound, spray, 7 days, read-out: % mortality (obs)
[10] = Frankliniella occidentalis, 168 h, rate 1000 ppm, single compound, spray, 7 days, read-out: % mortality (obs)
[11] = Corn Plant Hopper, rate 100 ppm, read-out: % mortality (obs)
[12] = Corn Plant Hopper, rate 1000 ppm, read-out: % mortality (obs)
[13] = Myzus persicae, in Raphanus sativus, read-out: % mortality (obs)
[14] = Empoasca fabae, rate 10 ppm, alone, read-out: % mortality (obs)
[15] = Empoasca fabae, rate 100 ppm, alone, read-out: % mortality (obs)
[16] = Empoasca fabae, rate 1000 ppm, alone, read-out: % mortality (obs)
[17] = rate 100 ppm, single compound, spray, 7 days

Molecule: COC(C)(C)CCC[C@H](C)C/C=C/C(C)=C/C(=O)OC(C)C (racemic) [Methoprene]
- % mortality (obs) ([1]; in vivo): 0%

Molecule: CC(C)N1C(=O)N(c2ccccc2)CS/C1=N\C(C)(C)C [Buprofezin]
- mortality at 10 ppm ([2]; Aphis gossypii, rate 10 ppm, read-out: % mortality (obs)): 34%
- mortality at 100 ppm ([2]; Aphis gossypii, rate 100 ppm, read-out: % mortality (obs)): 30%
- mortality at 1000 ppm [2, 7]: 36%
- mortality at 10 ppm [3, 8]: 20%
- mortality at 100 ppm [3, 9]: 20%
- mortality at 1000 ppm [3, 10]: 30%
- mortality at 300 ppm ([4]; rate 300 ppm): 75%
- mortality at 500 ppm [4]: 65%
- mortality at 1000 ppm [4]: 96%
- mortality at 10 ppm ([5]; Corn Plant Hopper, rate 10 ppm, read-out: % mortality (obs)): 96%
- mortality at 100 ppm [5, 11]: 97%
- mortality at 1000 ppm [5, 12]: 98%
- mortality at 10 ppm [6, 13]: 63%
- mortality at 100 ppm [6, 13]: 63%
- mortality at 1000 ppm [6, 13]: 54%
- mortality at 10 ppm [1, 14]: 20%
- mortality at 100 ppm [1, 15]: 20%
- mortality at 1000 ppm [1, 16]: 0%

Molecule: CCOP(=S)(OCC)Oc1nc(Cl)c(Cl)cc1Cl [Chlorpyrifos]
- mortality at 1 ppm ([2]; Aphis gossypii, rate 1 ppm, read-out: % mortality (obs)): 26%
- mortality at 5 ppm ([2]; Aphis gossypii, rate 5 ppm, read-out: % mortality (obs)): 14%
- mortality at 50 ppm ([2]; Aphis gossypii, rate 50 ppm, read-out: % mortality (obs)): 13%
- mortality at 10 ppm [3, 8]: 20%
- mortality at 100 ppm [3, 9]: 10%
- mortality at 1000 ppm [3, 10]: 10%
- mortality at 500 ppm [4]: 0%
- mortality at 1000 ppm [4]: 0%
- mortality at 2000 ppm ([4]; rate 2000 ppm): 0%
- mortality at 0.1 ppm ([5]; Corn Plant Hopper, rate 0.1 ppm, read-out: % mortality (obs)): 46%
- mortality at 0.2 ppm ([5]; Corn Plant Hopper, rate 0.2 ppm, read-out: % mortality (obs)): 24%
- mortality at 0.3 ppm ([5]; Corn Plant Hopper, rate 0.3 ppm, read-out: % mortality (obs)): 19%
- mortality at 10 ppm [6, 13]: 5%
- mortality at 100 ppm [6, 13]: 18%
- mortality at 1000 ppm [6, 13]: 9%
- mortality at 10 ppm [1, 14]: 13%
- mortality at 100 ppm [1, 15]: 0%
- mortality at 1000 ppm [1, 16]: 7%

Molecule: O=C(NC(=O)c1c(F)cccc1F)Nc1cc(Cl)c(OC(F)(F)C(F)F)c(Cl)c1 [Hexaflumuron]
- mortality at 30 ppm ([2]; Aphis gossypii, rate 30 ppm, read-out: % mortality (obs)): 32%
- mortality at 1000 ppm [2, 7]: 30%
- mortality at 3000 ppm ([2]; Aphis gossypii, rate 3000 ppm, read-out: % mortality (obs)): 29%
- mortality at 10 ppm ([4]; rate 10 ppm): 1%
- mortality at 60 ppm ([4]; rate 60 ppm): 0%
- mortality at 360 ppm ([4]; rate 360 ppm): 0%
- mortality at 100 ppm [5, 11]: 6%
- mortality at 1000 ppm [5, 12]: 5%
- mortality at 3000 ppm ([5]; Corn Plant Hopper, rate 3000 ppm, read-out: % mortality (obs)): 4%
- mortality at 100 ppm [6, 13]: 8%
- mortality at 1000 ppm [6, 13]: 6%
- mortality at 3000 ppm ([6]; Myzus persicae, in Raphanus sativus, rate 3000 ppm, read-out: % mortality (obs)): 13%
- mortality at 100 ppm [1, 15]: 13%
- mortality at 1000 ppm [1, 16]: 13%
- mortality at 3000 ppm ([1]; Empoasca fabae, rate 3000 ppm, alone, read-out: % mortality (obs)): 27%

Molecule: O=C(NC(=O)c1c(F)cccc1F)Nc1cc(Cl)c(OC(F)(F)C(F)C(F)(F)F)cc1Cl (stereo not drawn) [Lufenuron]
- mortality at 0.08 ppm ([2]; Aphis gossypii, rate 0.08 ppm, read-out: % mortality (obs)): 28%
- mortality at 0.4 ppm ([2]; Aphis gossypii, rate 0.4 ppm, read-out: % mortality (obs)): 39%
- mortality at 2 ppm ([2]; Aphis gossypii, rate 2 ppm, read-out: % mortality (obs)): 58%
- mortality at 10 ppm [3, 8]: 90%
- mortality at 100 ppm [3, 9]: 80%
- mortality at 500 ppm ([3]; Frankliniella occidentalis, 168 h, rate 500 ppm, single compound, spray, 7 days, read-out: % mortality (obs)): 80%
- mortality at 0.08 ppm ([5]; Corn Plant Hopper, rate 0.08 ppm, read-out: % mortality (obs)): 9%
- mortality at 0.4 ppm ([5]; Corn Plant Hopper, rate 0.4 ppm, read-out: % mortality (obs)): 7%
- mortality at 2 ppm ([5]; Corn Plant Hopper, rate 2 ppm, read-out: % mortality (obs)): 7%
- mortality at 50 ppm ([6]; Myzus persicae, in Raphanus sativus, rate 50 ppm, read-out: % mortality (obs)): 34%
- mortality at 250 ppm ([6]; Myzus persicae, in Raphanus sativus, rate 250 ppm, read-out: % mortality (obs)): 15%
- mortality at 1000 ppm [6, 13]: 28%
- mortality at 0.08 ppm ([1]; Empoasca fabae, rate 0.08 ppm, alone, read-out: % mortality (obs)): 40%
- mortality at 0.4 ppm ([1]; Empoasca fabae, rate 0.4 ppm, alone, read-out: % mortality (obs)): 53%
- mortality at 2 ppm ([1]; Empoasca fabae, rate 2 ppm, alone, read-out: % mortality (obs)): 40%

Molecule: Abamectin
- % mortality (obs) ([2]; rate 0.08 ppm): 35%
- % mortality (obs) ([2]; rate 0.4 ppm): 58%
- % mortality (obs) ([2]; rate 2 ppm): 100%
- % mortality (obs) ([3]; rate 1 ppm, single compound, spray, 7 days): 100%
- % mortality (obs) ([3]; rate 10 ppm, single compound, spray, 7 days): 100%
- % mortality (obs) [3, 17]: 100%
- % mortality (obs) ([5]; Corn Plant Hopper, rate 1.6 ppm): 7%
- % mortality (obs) ([5]; Corn Plant Hopper, rate 8 ppm): 93%
- % mortality (obs) ([5]; Corn Plant Hopper, rate 40 ppm): 100%
- % mortality (obs) ([6]; rate 0.08 ppm): 47%
- % mortality (obs) ([6]; rate 0.4 ppm): 100%
- % mortality (obs) ([6]; rate 2 ppm): 100%
- % mortality (obs) ([1]; rate 10 ppm, alone): 47%
- % mortality (obs) ([1]; rate 100 ppm, alone): 100%
- % mortality (obs) ([1]; rate 1000 ppm, alone): 100%

Molecule: Clothianidin
- % mortality (obs) ([2]; rate 0.08 ppm): 75%
- % mortality (obs) ([2]; rate 0.4 ppm): 91%
- % mortality (obs) ([2]; rate 2 ppm): 99%
- % mortality (obs) [3, 17]: 90%
- % mortality (obs) ([3]; rate 500 ppm, single compound, spray, 7 days): 100%
- % mortality (obs) ([3]; rate 1000 ppm, single compound, spray, 7 days): 100%
- % mortality (obs) ([5]; Corn Plant Hopper, rate 10 ppm): 100%
- % mortality (obs) ([5]; Corn Plant Hopper, rate 100 ppm): 100%
- % mortality (obs) ([5]; Corn Plant Hopper, rate 1000 ppm): 100%
- % mortality (obs) ([6]; rate 0.08 ppm): 100%
- % mortality (obs) ([6]; rate 0.4 ppm): 100%
- % mortality (obs) ([6]; rate 2 ppm): 100%
- % mortality (obs) ([1]; rate 10 ppm, alone): 93%
- % mortality (obs) ([1]; rate 100 ppm, alone): 100%
- % mortality (obs) ([1]; rate 1000 ppm, alone): 100%

Molecule: Dinotefuran
- % mortality (obs) ([3]; in vivo): 50%
- % mortality (obs) ([5]; in vivo): 5%
- % mortality (obs) ([1]; in vivo): 7%

Molecule: Lambda-cyhalothrin
- % mortality (obs) ([3]; in vivo): 40%
- % mortality (obs) ([5]; in vivo): 7%
